The source made the active and inactive calls. No cut-off for these calls is given here.
Legend:
RNA [1] = experiment: Binding affinity to complementary RNA (unknown origin) with mismatch bases in sodium phosphate buffer; type: nucleic-acid assay
RNA [2] = experiment: Binding affinity to complementary RNA (unknown origin) in sodium phosphate buffer assessed as melting temperature of PNA-RNA duplex; type: nucleic-acid assay
Keratinocyte = experiment: Inhibition of PDZK1IP1 mRNA expression in human keratinocytes incubated for 24 hrs by RT-qPCR analysis; type: functional, cell-based

Structure (SMILES) | Activity (RNA [1]) | Tm (RNA [2]) | inhibition (Keratinocyte)
Cc1cn(CC(=O)N(CCNC(=O)CN(CCNC(=O)CN(CCN)C(=O)Cn2ccc(N)nc2=O)C(=O)Cn2ccc(N)nc2=O)CC(=O)NCCN(CC(=O)NCCN(CC(=O)NCCN(CC(=O)NCCN(CC(=O)NCCN(CC(=O)NCCN(CC(=O)NCCN(CC(=O)NCCN(CC(=O)NCCN(CC(=O)NCCN(CC(=O)NCCN(CC(=O)O)C(=O)Cn2cnc3c(=O)[nH]c(N)nc32)C(=O)Cn2cnc3c(N)ncnc32)C(=O)Cn2cc3cc(COCCN)[nH]c3nc2=O)C(=O)Cn2ccc(N)nc2=O)C(=O)Cn2cnc3c(N)nc(NCCCCCN)nc32)C(=O)Cn2ccc(N)nc2=O)C(=O)Cn2cnc3c(=O)[nH]c(N)nc32)C(=O)Cn2cnc3c(=O)[nH]c(NCCCCCCN)nc32)C(=O)Cn2cc(C)c(=O)[nH]c2=O)C(=O)Cn2ccc(N)nc2=O)C(=O)Cn2cc3cc(COCCN)[nH]c3nc2=O)c(=O)[nH]c1=O | inactive | 78.1 °C | –
Cc1cn(CC(=O)N(CCNC(=O)CN(CCNC(=O)CN(CCNC(=O)CN(CCNC(=O)CN(CCN)C(=O)Cn2ccc(N)nc2=O)C(=O)Cn2cc(C)c(=O)[nH]c2=O)C(=O)Cn2cc3cc(COCCN)[nH]c3nc2=O)C(=O)Cn2ccc(N)nc2=O)CC(=O)NCCN(CC(=O)NCCN(CC(=O)NCCN(CC(=O)NCCN(CC(=O)NCCN(CC(=O)NCCN(CC(=O)NCCN(CC(=O)NCCN(CC(=O)NCCN(CC(=O)O)C(=O)Cn2cc3cc(COCCN)[nH]c3nc2=O)C(=O)Cn2ccc(N)nc2=O)C(=O)Cn2cnc3c(N)nc(NCCCCCN)nc32)C(=O)Cn2ccc(N)nc2=O)C(=O)Cn2cnc3c(=O)[nH]c(N)nc32)C(=O)Cn2cnc3c(=O)[nH]c(NCCCCCCN)nc32)C(=O)Cn2cc(C)c(=O)[nH]c2=O)C(=O)Cn2cc3cc(COCCN)[nH]c3nc2=O)C(=O)Cn2ccc(N)nc2=O)c(=O)[nH]c1=O | inactive | 79 °C | –
Cc1cn(CC(=O)N(CCNC(=O)CN(CCNC(=O)CN(CCNC(=O)CN(CCNC(=O)CN(CCNC(=O)CN(CCNC(=O)CN(CCNC(=O)CN(CCNC(=O)CN(CCNC(=O)CN(CCNC(=O)CN(CCNC(=O)CN(CCNC(=O)CN(CCNC(=O)CN(CCN)C(=O)Cn2cc(C)c(=O)[nH]c2=O)C(=O)Cn2ccc(N)nc2=O)C(=O)Cn2cnc3c(N)nc(NCCCCCN)nc32)C(=O)Cn2cc3cc(COCCN)[nH]c3nc2=O)C(=O)Cn2cnc3c(=O)[nH]c(N)nc32)C(=O)Cn2cnc3c(=O)[nH]c(NCCCCCCN)nc32)C(=O)Cn2ccc(N)nc2=O)C(=O)Cn2cc(C)c(=O)[nH]c2=O)C(=O)Cn2cc3cc(COCCN)[nH]c3nc2=O)C(=O)Cn2ccc(N)nc2=O)C(=O)Cn2cc(C)c(=O)[nH]c2=O)C(=O)Cn2ccc(N)nc2=O)C(=O)Cn2cc3cc(COCCN)[nH]c3nc2=O)CC(=O)O)c(=O)[nH]c1=O | inactive | 80.4 °C | –
Cc1cn(CC(=O)N(CCNC(=O)CN(CCNC(=O)CN(CCNC(=O)CN(CCNC(=O)CN(CCNC(=O)CN(CCN)C(=O)Cn2ccc(N)nc2=O)C(=O)Cn2cnc3c(N)nc(NCCCCCN)nc32)C(=O)Cn2cnc3c(=O)[nH]c(N)nc32)C(=O)Cn2cnc3c(=O)[nH]c(N)nc32)C(=O)Cn2cc3cc(COCCN)[nH]c3nc2=O)CC(=O)NCCN(CC(=O)NCCN(CC(=O)NCCN(CC(=O)NCCN(CC(=O)NCCN(CC(=O)NCCN(CC(=O)NCCN(CC(=O)NCCN(CC(=O)O)C(=O)Cn2cnc3c(=O)[nH]c(NCCCCCCN)nc32)C(=O)Cn2cnc3c(=O)[nH]c(N)nc32)C(=O)Cn2cnc3c(=O)[nH]c(N)nc32)C(=O)Cn2cnc3c(=O)[nH]c(NCCCCCCN)nc32)C(=O)Cn2cc(C)c(=O)[nH]c2=O)C(=O)Cn2cc3cc(COCCN)[nH]c3nc2=O)C(=O)Cn2ccc(N)nc2=O)C(=O)Cn2ccc(N)nc2=O)c(=O)[nH]c1=O | inactive | – | –
Cc1cn(CC(=O)N(CCNC(=O)CN(CCNC(=O)CN(CCNC(=O)CN(CCNC(=O)CN(CCNC(=O)CN(CCNC(=O)CN(CCNC(=O)CN(CCNC(=O)CN(CCN)C(=O)Cn2cnc3c(N)nc(NCCCCCN)nc32)C(=O)Cn2ccc(N)nc2=O)C(=O)Cn2cnc3c(=O)[nH]c(N)nc32)C(=O)Cn2cnc3c(=O)[nH]c(NCCCCCCN)nc32)C(=O)Cn2ccc(N)nc2=O)C(=O)Cn2cc(C)c(=O)[nH]c2=O)C(=O)Cn2cc3cc(COCCN)[nH]c3nc2=O)C(=O)Cn2ccc(N)nc2=O)CC(=O)NCCN(CC(=O)NCCN(CC(=O)NCCN(CC(=O)NCCN(CC(=O)NCCN(CC(N)=O)C(=O)Cn2cnc3c(=O)[nH]c(N)nc32)C(=O)Cn2cnc3c(=O)[nH]c(NCCCCCCN)nc32)C(=O)Cn2cc(C)c(=O)[nH]c2=O)C(=O)Cn2ccc(N)nc2=O)C(=O)Cn2cc3cc(COCCN)[nH]c3nc2=O)c(=O)[nH]c1=O | inactive | 81 °C | –
Cc1cn(CC(=O)N(CCN)CC(=O)NCCN(CC(=O)NCCN(CC(=O)NCCN(CC(=O)NCCN(CC(=O)NCCN(CC(=O)NCCN(CC(=O)NCCN(CC(=O)NCCN(CC(=O)NCCN(CC(=O)NCCN(CC(=O)NCCN(CC(=O)NCCN(CC(=O)NCCN(CC(=O)O)C(=O)Cn2ccc(N)nc2=O)C(=O)Cn2cc3cc(COCCN)[nH]c3nc2=O)C(=O)Cn2cc(C)c(=O)[nH]c2=O)C(=O)Cn2ccc(N)nc2=O)C(=O)Cn2cnc3c(=O)[nH]c(NCCCCCCN)nc32)C(=O)Cn2cnc3c(=O)[nH]c(N)nc32)C(=O)Cn2cnc3c(N)nc(NCCCCCN)nc32)C(=O)Cn2ccc(N)nc2=O)C(=O)Cn2cnc3c(=O)[nH]c(NCCCCCCN)nc32)C(=O)Cn2cc(C)c(=O)[nH]c2=O)C(=O)Cn2cnc3c(=O)[nH]c(NCCCCCCN)nc32)C(=O)Cn2cc(C)c(=O)[nH]c2=O)C(=O)Cn2cnc3c(=O)[nH]c(NCCCCCCN)nc32)c(=O)[nH]c1=O | inactive | 70.5 °C | –

Now from value to compound, other results behind:

Activity (RNA [1]) | Tm (RNA [2]) | Structure (SMILES) | inhibition (Keratinocyte)
inactive | > 90 °C | Cc1cn(CC(=O)N(CCNC(=O)CN(CCNC(=O)CN(CCNC(=O)CN(CCNC(=O)CN(CCNC(=O)CN(CCNC(=O)CN(CCNC(=O)CN(CCNC(=O)CN(CCN)C(=O)Cn2cnc3c(N)nc(NCCCCCN)nc32)C(=O)Cn2ccc(N)nc2=O)C(=O)Cn2cnc3c(=O)[nH]c(N)nc32)C(=O)Cn2cnc3c(=O)[nH]c(N)nc32)C(=O)Cn2ccc(N)nc2=O)C(=O)Cn2cc(C)c(=O)[nH]c2=O)C(=O)Cn2cc3cc(COCCN)[nH]c3nc2=O)C(=O)Cn2ccc(N)nc2=O)CC(=O)NCCN(CC(=O)NCCN(CC(=O)NCCN(CC(=O)NCCN(CC(=O)NCCN(CC(=O)NCCN(CC(=O)NCCN(CC(=O)NCCN(CC(=O)NCCN(CC(=O)NCCN(CC(=O)NCCN(CC(=O)O)C(=O)Cn2cnc3c(=O)[nH]c(N)nc32)C(=O)Cn2cnc3c(N)nc(NCCCCCN)nc32)C(=O)Cn2ccc(N)nc2=O)C(=O)Cn2ccc(N)nc2=O)C(=O)Cn2cnc3c(N)nc(NCCCCCN)nc32)C(=O)Cn2ccc(N)nc2=O)C(=O)Cn2cnc3c(=O)[nH]c(N)nc32)C(=O)Cn2cnc3c(=O)[nH]c(NCCCCCCN)nc32)C(=O)Cn2cc(C)c(=O)[nH]c2=O)C(=O)Cn2ccc(N)nc2=O)C(=O)Cn2ccc(N)nc2=O)c(=O)[nH]c1=O | Dose-dependent-effect
inactive | > 90 °C | Cc1cn(CC(=O)N(CCNC(=O)CN(CCNC(=O)CN(CCNC(=O)CN(CCNC(=O)CN(CCNC(=O)CN(CCN)C(=O)Cn2cnc3c(N)nc(NCCCCCN)nc32)C(=O)Cn2cnc3c(N)ncnc32)C(=O)Cn2cnc3c(=O)[nH]c(N)nc32)C(=O)Cn2cnc3c(=O)[nH]c(N)nc32)C(=O)Cn2cc(C)c(=O)[nH]c2=O)CC(=O)NCCN(CC(=O)NCCN(CC(=O)NCCN(CC(=O)NCCN(CC(=O)NCCN(CC(=O)NCCN(CC(=O)NCCN(CC(=O)NCCN(CC(=O)NCCN(CC(=O)NCCN(CC(=O)NCCN(CC(=O)NCCN(CC(=O)NCCN(CC(=O)NCCN(CC(=O)O)C(=O)Cn2cnc3c(N)nc(NCCCCCN)nc32)C(=O)Cn2ccc(N)nc2=O)C(=O)Cn2cnc3c(N)ncnc32)C(=O)Cn2cnc3c(N)nc(NCCCCCN)nc32)C(=O)Cn2cc(C)c(=O)[nH]c2=O)C(=O)Cn2ccc(N)nc2=O)C(=O)Cn2ccc(N)nc2=O)C(=O)Cn2cnc3c(=O)[nH]c(N)nc32)C(=O)Cn2cnc3c(=O)[nH]c(N)nc32)C(=O)Cn2cnc3c(N)nc(NCCCCCN)nc32)C(=O)Cn2ccc(N)nc2=O)C(=O)Cn2ccc(N)nc2=O)C(=O)Cn2cc3cc(COCCN)[nH]c3nc2=O)C(=O)Cn2ccc(N)nc2=O)c(=O)[nH]c1=O | –
inactive | 79.2 °C | Cc1cn(CC(=O)N(CCNC(=O)CN(CCNC(=O)CN(CCN)C(=O)Cn2ccc(N)nc2=O)C(=O)Cn2cc3cc(COCCN)[nH]c3nc2=O)CC(=O)NCCN(CC(=O)NCCN(CC(=O)NCCN(CC(=O)NCCN(CC(=O)NCCN(CC(=O)NCCN(CC(=O)NCCN(CC(=O)NCCN(CC(=O)NCCN(CC(=O)NCCN(CC(=O)NCCN(CC(=O)NCCN(CC(=O)NCCN(CC(=O)NCCN(CC(=O)NCCN(CC(=O)NCCN(CC(=O)NCCN(CC(=O)O)C(=O)Cn2ccc(N)nc2=O)C(=O)Cn2cnc3c(=O)[nH]c(NCCCCCCN)nc32)C(=O)Cn2ccc(N)nc2=O)C(=O)Cn2ccc(N)nc2=O)C(=O)Cn2cnc3c(=O)[nH]c(NCCCCCCN)nc32)C(=O)Cn2cnc3c(=O)[nH]c(N)nc32)C(=O)Cn2cc(C)c(=O)[nH]c2=O)C(=O)Cn2ccc(N)nc2=O)C(=O)Cn2cnc3c(N)ncnc32)C(=O)Cn2cnc3c(N)nc(NCCCCCN)nc32)C(=O)Cn2cnc3c(N)ncnc32)C(=O)Cn2cnc3c(=O)[nH]c(N)nc32)C(=O)Cn2cc(C)c(=O)[nH]c2=O)C(=O)Cn2ccc(N)nc2=O)C(=O)Cn2ccc(N)nc2=O)C(=O)Cn2cnc3c(N)nc(NCCCCCN)nc32)C(=O)Cn2ccc(N)nc2=O)c(=O)[nH]c1=O | –
inactive | > 90 °C | Cc1cn(CC(=O)N(CCNC(=O)CN(CCNC(=O)CN(CCNC(=O)CN(CCNC(=O)CN(CCNC(=O)CN(CCNC(=O)CN(CCNC(=O)CN(CCNC(=O)CN(CCNC(=O)CN(CCNC(=O)CN(CCNC(=O)CN(CCNC(=O)CN(CCN)C(=O)Cn2cnc3c(N)nc(NCCCCCN)nc32)C(=O)Cn2ccc(N)nc2=O)C(=O)Cn2cc(C)c(=O)[nH]c2=O)C(=O)Cn2ccc(N)nc2=O)C(=O)Cn2cnc3c(N)nc(NCCCCCN)nc32)C(=O)Cn2ccc(N)nc2=O)C(=O)Cn2cnc3c(=O)[nH]c(N)nc32)C(=O)Cn2cnc3c(=O)[nH]c(N)nc32)C(=O)Cn2ccc(N)nc2=O)C(=O)Cn2cc(C)c(=O)[nH]c2=O)C(=O)Cn2cc3cc(COCCN)[nH]c3nc2=O)C(=O)Cn2ccc(N)nc2=O)CC(=O)NCCN(CC(=O)NCCN(CC(=O)NCCN(CC(=O)NCCN(CC(=O)NCCN(CC(=O)NCCN(CC(=O)NCCN(CC(=O)O)C(=O)Cn2cnc3c(N)nc(NCCCCCN)nc32)C(=O)Cn2ccc(N)nc2=O)C(=O)Cn2cnc3c(=O)[nH]c(N)nc32)C(=O)Cn2cnc3c(=O)[nH]c(NCCCCCCN)nc32)C(=O)Cn2cc(C)c(=O)[nH]c2=O)C(=O)Cn2ccc(N)nc2=O)C(=O)Cn2ccc(N)nc2=O)c(=O)[nH]c1=O | –
